Measured values reported in patent US8980845B2, “Biotechnological production of cyanophycin dipeptides” (Westfälische Wilhelms-Universität Münster, priority 2008, dated 2015).
Values joined by “and” are separate entries in the source; they are usually repeats but may differ in a detail not shown here. Equal entries are not always repeated. “Also recorded” adds a separate entry of the source. Where two headings read alike, the source gives them in different places. Marks after values point to notes of the source that are not given here.

Legend:
[1] = tested on: Caco2 cells (human-colon epithelial adenocarcinoma cells); assay: Absorption of CGP dipeptides by Caco2-cell cultures; details: after 113 h of incubation; medium with 350 μg/ml CGP dipeptides (90% Asp-Arg: 10% Asp-Lys)
Experimental: (§3) A Dulbecco's Modified Eagle Medium (DMEM) containing 20% Fetal Calf Serum (FCS) and 1% of 2 mM Glutamine solution was used as cultivation medium. About 7000 Caco2 cells per well were disseminated in a 24-well plate and incubated at 37° C. under an atmosphere of 5% CO2 and about 98% humidity. The cells were checked microscopically on a daily basis until forming monolayer after nearly 50 h. […] A well line was supplied with fresh 700 μl of the incubation medium without the latter additives and was considered as control. Samples were taken after incubation periods of 0, 13, 22, 67 and 113 h and were analyzed by HPLC as described by Sallam and Steinbüchel (J. App. Microbiol. DOI: 10.1111/j.1365-2672.2009.04221.x) to determine the change of concentrations of the tested dipeptides and amino acids.

[2] = tested on: purified CphEal from P. alcaligenes strain DIP1; assay: Effect of group-specific inhibitors on purified CphEal, HPLC analysis of CGP degradation products; assay type: biochemical; details: for HPLC analysis (Inhibition %) high inhibitor concentration: high concentration (mM): Leupeptin 0.01, EDTA 60, Pefabloc 80, PMSF 10, NBS 5; for HPLC analysis (Inhibition %) high inhibitor concentration / HPLC analysis (Inhibition %) low inhibitor concentration: 2 h at 30° C., refers to control without inhibitor; for HPLC analysis (Inhibition %) low inhibitor concentration: low concentration (mM): Leupeptin 0.001, EDTA 30, Pefabloc 8, PMSF 1, NBS 1
Experimental: (§1) To reveal the effect of enzyme inhibitors on the purified CphEal, 50 μl aliquots of the purified enzyme stalk solution were added to 450 μl of Na-phosphate buffer (50 mM) and incubated for 2 h at 30° C. in the presence of one of the following Group-specific inhibitors; Leupeptin (thiol-proteases), EDTA (metalloproteases), Pefabloc (serine-proteases), PMSF (serine-proteases) or N-bromosuccinimide (tryptophan residues).
(§2) To gain information on the catalytic mechanism of CphEal, inhibitor experiments were conducted employing different group-specific inhibitors (Table 1).

[3] = tested on: purified CphEal from P. alcaligenes strain DIP1; assay: Effect of group-specific inhibitors on purified CphEal, activity on CGP-overlay agar plates; assay type: biochemical; details: for Inhibition of CphEal (in words): assayed on CGP-overlay agar plates and by HPLC analysis
Experimental: as §1, §2

[4] = tested on: Caco2 cells (human-colon epithelial adenocarcinoma cells); details: Caco-2, 113 h
Experimental: as §3

[5] = low dose intravenous (IV) infusion; cited from earlier work
[6] = 250 mg/kg/day oral for seven days, five healthy subjects aged 20 to 35; cited from earlier work
[7] = tested on: P. alcaligenes strain DIP1; assay: Induction of CphEal production in cultures of strain DIP1; assay type: cell-based
Experimental: The activity of the cyanophycinase (CphEal) was inspected by formation of degradation halos on CGP-overlay agar plates by small aliquots of concentrated enzyme solutions, for this, 5 ml culture samples were centrifuged at 2800×g for 30 min (Megafuge 1.0 R, Heraeus Sepatech GmbH, Osterode, Germany) and 4 ml of the resulting supernatant were concentrated 100 folds by ultrafiltration. For the quantitative determination of the enzyme in culture samples, a photometric method was developed as follows; 2 μl of the concentrated culture supernatant were added to 1 ml of a CGP suspension (100 mg l^−1) and incubated at 30° C. for 30 min in a tube rotator (3 rpm, type 502 S, Watson-Marlow GmbH, Rommerskirchen, Germany). Finally, OD600 nm of samples was measured to indicate the decrease in CGP amount due to degradation; this in turn was used to indicate the concentration of CphEal in solutions through the respective calibration curve.
To conclude the optimum cultivation conditions for maximum production of CphEal by strain DIP1, cells were cultivated on different concentrations of citrate under optimum growth conditions, when cells reached the stationary phase; CphEal production was induced by the addition of 0.25 g CGP.
During the following 5 h, supernatant samples were concentrated (100 folds) and screened for degradation activity on CGP-overlay agar plates as well as photometrically.
All inductors were tested first at a concentration of 0.25 g l^−1 and CphEal production was assayed on CGP-overlay agar plates and also photometrically.

CGP = details: data from literature, cited from earlier work

With NC(N)=NCCC[C@H](NC(=O)C[C@H](N)C(=O)O)C(=O)O [cyanophycin Asp-Arg dipeptides, β-aspartate-arginine] the “Absorption by Caco2 cells (HPLC analysis of the medium samples)” value (from here on “Absorption by Caco2 cells”) [1] was “approximately 60%”.

For O=C1CCC(=O)N1Br [NBS, N-bromosuccinimide], the “HPLC analysis (Inhibition %) high inhibitor concentration” value [2] was 100%, the “HPLC analysis (Inhibition %) low inhibitor concentration” value [2] was 100% and the “Inhibition of CphEal (in words)” value [3] was “totally inhibited; also recorded: total inhibition”.

In the case of O=C(O)CN(CCN(CC(=O)O)CC(=O)O)CC(=O)O [EDTA], the “HPLC analysis of inhibitor-treated samples (in words)” value [2] is reported as “showed inhibition”, the “HPLC analysis (Inhibition %) high inhibitor concentration” value [2] is reported as 75^c % and the “HPLC analysis (Inhibition %) low inhibitor concentration” value [2] is reported as 65^c %. The “Inhibition of the CGPase, HPLC analysis of samples treated with EDTA” value ([2]; stated to be due to precipitates during OPA-derivatization) was “about 75%” and the “Formation of degradation halos by CphEal on CGP-overlay agar plates in presence of inhibitor” value (shortened to “Formation of degradation halos … of inhibitor”) [3] was “no activity inhibition; also recorded: not affected”.

In the case of NCCCC[C@H](NC(=O)C[C@H](N)C(=O)O)C(=O)O [cyanophycin Asp-Lys dipeptides, β-aspartate-lysine], the “Absorption by Caco2 cells” value [1] is reported as 68%.

For O=S(=O)(F)Cc1ccccc1 [PMSF, Phenylmethylsulfonylfluoride], the “HPLC analysis (Inhibition %) high inhibitor concentration” value [2] was 57%, the “HPLC analysis (Inhibition %) low inhibitor concentration” value [2] was 0% and the “Inhibition of CphEal (in words)” value [3] was “largely inhibited; also recorded: strongly inhibited”.

For N=C(N)NCCC[C@H](N)C(=O)O [free arginine, L-arginine], the “Absorption by Caco2 cells” value [4] is listed as 41% and the “Serum GH levels” value [5] is listed as “significant increase”.

For “L-Arginine-L-Aspartate [arginine aspartate]”, the “Rise in GH during slow wave sleep” value [6] is given as 60%.

For Cl.NCCc1ccc(S(=O)(=O)F)cc1 [Pefabloc ®, 4-(2-aminoethyl) benzensulfonylfluoride•HCl], the “HPLC analysis (Inhibition %) high inhibitor concentration” value [2] was 100%, the “HPLC analysis (Inhibition %) low inhibitor concentration” value [2] was 91% and the “Inhibition of CphEal (in words)” value ([3]; listed as Pefabloc) was “strongly inhibited”. The “Inhibition of CphEal (in words)” value ([3]; listed as Pefabloc®) was “largely inhibited”.

With NCCCC[C@H](N)C(=O)O [free L-lysine, L-lysine] the “Absorption by Caco2 cells” value [4] was 51%.

With N[C@@H](CC(=O)O)C(=O)O [L-aspartic acid] the “CphEal production after induction in comparison to cultures induced with optimum CGP concentration (0.05 g l^−1)” value ([7]; 4 g l^−1 aspartate, 5 h) was “only the third”, the “Time after induction at which maximum CphEal production was obtained” value ([7]; at optimum inductor concentration) was 5 h and the “Inductor concentration giving maximum CphEal production” value ([7]; cultures of strain DIP1 under optimal production conditions) was 4 g/L. The “Induction of CphEal production” value ([7]; inductors tested at 0.25 g l^−1, CGP-overlay agar plates and photometrically) was “induced significant amounts”.

With CC(=O)N[C@@H](CC(C)C)C(=O)N[C@@H](CC(C)C)C(=O)N[C@H](C=O)CCCNC(=N)N [Leupeptin] the “HPLC analysis (Inhibition %) high inhibitor concentration” value [2] was 39%, the “HPLC analysis (Inhibition %) low inhibitor concentration” value [2] was 10% and the “Formation of degradation halos … of inhibitor” value [3] was “no activity inhibition”. For the same molecule, the “Formation of degradation halos … of inhibitor” value ([3]; listed as leupeptin) was “not affected”.

B1: CphB: intracellular cyanophycinase of Synechocystis sp. PCC 6803 (protein, UniProt P73832 2-271, looked up)
Cyanophycinase: PLSSQPAILIIGGAEDKVHGREILQTFWSRSGGNDAIIGIIPSASREPLLIGERYQTIFSDMGVKELKVLDIRDRAQGDDSGYRLFVEQCTGIFMTGGDQLRLCGLLADTPLMDRIRQRVHNGEISLAGTSAGAAVMGHHMIAGGSSGEWPNRALVDMAVGLGIVPEIVVDQHFHNRNRMARLLSAISTHPELLGLGIDEDTCAMFERDGSVKVIGQGTVSFVDARDMSYTNAALVGANAPLSLHNLRLNILVHGEVYHQVKQRAFPRVT
In the case of B1, the Mechanism (CGP; cell wrapped: Exo-peptidase) is given as “Exo-”, the CGP degradation products (CGP) is given as “β-Asp-Arg” and the Inhibitors (CGP) is given as “PMSF, and 3,4-dichloro- and Pefabloc ®,”. For the same molecule, the “Optimum pH range” value (CGP) was 7-8^ and the Optimum temperature (CGP) was 35 °C.
